Data from ChEMBL document CHEMBL4177750, “Imidazopyrazinones (IPYs): Non-Quinolone Bacterial Topoisomerase Inhibitors Showing Partial Cross-Resistance with Quinolones” (J Med Chem, 2018).
In brackets after ≈: the same amount, converted by molar mass. Activity calls are given as the source filed them. The calls are words filed in the database; no cut-off is given here.

Tests used:
Escherichia coli [1] = experiment: Antibacterial activity against ESBL producing Escherichia coli ATCC 35218 after 20 to 22 hrs; assay type: functional
Escherichia coli [2] = experiment: Antibacterial activity against Escherichia coli K-12 MG1655 after 20 to 22 hrs; conditions: K-12 substr. MG1655
Escherichia coli [3] = experiment: Antibacterial activity against tolC-deficient Escherichia coli K-12 MG1655 after 20 to 22 hrs; assay type: functional; conditions: K-12 substr. MG1655
Escherichia coli [4] = experiment: Antibacterial activity against hyperpermeable Escherichia coli D22 harboring LpxC mutant after 20 to 22 hrs
Pseudomonas aeruginosa [5] = experiment: Antibacterial activity against Pseudomonas aeruginosa PAO1 after 20 to 22 hrs; assay type: functional
Pseudomonas aeruginosa [6] = experiment: Antibacterial activity against Pseudomonas aeruginosa PAO750 harboring mexAB-oprM/mexCD-oprJ/mexEF-oprN/mexXY/opmH/mexJK/pscC deletion mutant after 20 to 22 hrs; assay type: functional
Staphylococcus aureus [7] = experiment: Antibacterial activity against methicillin-resistant Staphylococcus aureus ATCC 33592 after 20 to 22 hrs; assay type: functional
[8] = Cytotoxicity against human HepG2 cells assessed as decrease in cell viability after 40 hrs by Celltiter Glo assay
Escherichia coli [9] = experiment: Inhibition of DNA synthesis in tolC-deficient Escherichia coli K-12 MG1655 at MIC to 8 times MIC after 5 to 120 mins by [methyl-3H]-thymidine incorporation assay; assay type: functional, organism-based; conditions: K-12 substr. MG1655
Acinetobacter baumannii [10] = experiment: Antibacterial activity against Acinetobacter baumannii BM4652 harboring adeABC/adeIJK deletion mutant after 20 to 22 hrs; assay type: functional
Klebsiella pneumoniae [11] = experiment: Antibacterial activity against tolC-deficient Klebsiella pneumoniae 1161486a after 20 to 22 hrs; assay type: functional
Acinetobacter baumannii [12] = experiment: Antibacterial activity against Acinetobacter baumannii BM4454 after 20 to 22 hrs; assay type: functional
Klebsiella pneumoniae [13] = experiment: Antibacterial activity against Klebsiella pneumoniae 1161486 after 20 to 22 hrs; assay type: functional
Staphylococcus aureus [14] = experiment: Antibacterial activity against methicillin-resistant Staphylococcus aureus ATCC 33592 after 20 to 22 hrs in presence of 50% calf fetal serum; assay type: functional, organism-based
Staphylococcus aureus [15] = experiment: Antibacterial activity against methicillin-resistant Staphylococcus aureus ATCC 33592 after 20 to 22 hrs in presence of 50% mouse serum; assay type: functional, organism-based
[16] = Thermodynamic aqueous solubility of the compound at pH 7.4; conditions: aqueous solution
[17] = Apparent permeability across human Caco2 cells; conditions: Caco-2
[18] = Drug metabolism in human liver microsomes at 5 uM after 20 mins in presence of NADPH; assay type: ADME, microsome; conditions: read-out: Drug metabolism
[19] = Drug metabolism in mouse liver microsomes at 5 uM after 20 mins in presence of NADPH; assay type: ADME, microsome; conditions: read-out: Drug metabolism
[20] = Drug metabolism in rat liver microsomes at 5 uM after 20 mins in presence of NADPH; assay type: ADME, microsome; conditions: read-out: Drug metabolism
Cytochrome P450 3A4 [21] = target: T1, Cytochrome P450 3A4 (Homo sapiens, UniProt P08684); experiment: Inhibition of CYP3A4-mediated midazolam metabolism in human liver microsomes
T1 sequence (P08684 whole entry): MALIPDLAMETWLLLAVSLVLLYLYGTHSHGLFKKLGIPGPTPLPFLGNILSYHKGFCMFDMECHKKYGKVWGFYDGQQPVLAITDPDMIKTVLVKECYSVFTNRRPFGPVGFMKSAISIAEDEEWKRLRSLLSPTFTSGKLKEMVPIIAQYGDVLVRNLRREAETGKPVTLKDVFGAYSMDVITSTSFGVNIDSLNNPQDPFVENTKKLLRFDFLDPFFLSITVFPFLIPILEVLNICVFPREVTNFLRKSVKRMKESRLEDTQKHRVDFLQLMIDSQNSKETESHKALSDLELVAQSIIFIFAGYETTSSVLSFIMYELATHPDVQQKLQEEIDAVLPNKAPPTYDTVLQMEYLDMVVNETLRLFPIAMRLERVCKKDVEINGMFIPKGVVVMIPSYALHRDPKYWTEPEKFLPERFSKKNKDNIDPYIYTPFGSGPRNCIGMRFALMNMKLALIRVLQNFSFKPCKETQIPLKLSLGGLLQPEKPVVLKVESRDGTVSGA

Cytochrome P450 3A4 [22] = target: T1, Cytochrome P450 3A4; experiment: Inhibition of CYP3A4-mediated testosterone metabolism in human liver microsomes
[23] = target: Voltage-gated inwardly rectifying potassium channel KCNH2 (Homo sapiens, UniProt Q12809); experiment: Inhibition of human ERG transfected in CHO cells by patch clamp method
Voltage-gated inwardly rectifying potassium channel KCNH2, sequence (Q12809 whole entry): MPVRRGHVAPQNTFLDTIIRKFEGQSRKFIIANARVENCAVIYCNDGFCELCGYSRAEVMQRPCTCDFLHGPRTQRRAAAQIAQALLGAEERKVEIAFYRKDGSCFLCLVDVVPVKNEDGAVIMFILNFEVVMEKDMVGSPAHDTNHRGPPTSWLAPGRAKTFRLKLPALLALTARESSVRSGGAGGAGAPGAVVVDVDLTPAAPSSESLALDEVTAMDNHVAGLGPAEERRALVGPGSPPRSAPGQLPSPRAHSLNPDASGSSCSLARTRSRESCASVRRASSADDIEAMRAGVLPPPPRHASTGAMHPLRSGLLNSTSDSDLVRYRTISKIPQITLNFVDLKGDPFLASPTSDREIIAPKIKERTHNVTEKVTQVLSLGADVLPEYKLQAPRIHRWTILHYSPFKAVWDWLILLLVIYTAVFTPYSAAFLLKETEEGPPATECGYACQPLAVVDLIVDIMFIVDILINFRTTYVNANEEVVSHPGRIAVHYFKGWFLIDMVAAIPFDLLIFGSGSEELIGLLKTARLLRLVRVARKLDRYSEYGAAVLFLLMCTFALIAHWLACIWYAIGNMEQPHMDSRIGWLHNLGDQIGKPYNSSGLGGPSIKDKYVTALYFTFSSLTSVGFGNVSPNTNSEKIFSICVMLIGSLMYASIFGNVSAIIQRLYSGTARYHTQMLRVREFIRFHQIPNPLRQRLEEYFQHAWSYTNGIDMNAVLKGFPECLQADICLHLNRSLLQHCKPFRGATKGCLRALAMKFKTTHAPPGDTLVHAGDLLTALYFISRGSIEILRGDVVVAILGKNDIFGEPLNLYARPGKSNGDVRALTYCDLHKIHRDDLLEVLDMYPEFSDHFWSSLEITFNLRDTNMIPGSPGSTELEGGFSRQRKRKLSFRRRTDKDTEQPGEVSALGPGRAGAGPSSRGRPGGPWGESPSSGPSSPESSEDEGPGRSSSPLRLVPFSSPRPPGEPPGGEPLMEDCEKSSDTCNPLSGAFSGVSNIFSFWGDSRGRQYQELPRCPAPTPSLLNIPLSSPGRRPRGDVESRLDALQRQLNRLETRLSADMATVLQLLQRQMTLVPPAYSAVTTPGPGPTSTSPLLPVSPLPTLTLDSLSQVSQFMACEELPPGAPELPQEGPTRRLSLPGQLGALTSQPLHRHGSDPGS

[24] = Metabolic stability in mouse plasma at 1 uM after 4 hrs; assay type: ADME, cell-free; conditions: read-out: Stability
[25] = Metabolic stability in rat plasma at 1 uM after 4 hrs; assay type: ADME, cell-free; conditions: read-out: Stability
L5178Y [26] = experiment: Genotoxicity in mouse L5178Y cells after 23 hrs in absence of S9 fraction by micronucleus test; assay type: toxicity, cell-based
L5178Y [27] = experiment: Genotoxicity in mouse L5178Y cells after 3 hrs in presence of S9 fraction by micronucleus test; assay type: toxicity, cell-based; conditions: s9, 3 h
Staphylococcus aureus [28] = experiment: Antibacterial activity against wild type Staphylococcus aureus RN4220 after 20 to 22 hrs; assay type: functional
Staphylococcus aureus [29] = experiment: Antibacterial activity against Staphylococcus aureus RN4220 harboring GyrA D83N mutant after 20 to 22 hrs; assay type: functional
Staphylococcus aureus [30] = experiment: Antibacterial activity against Staphylococcus aureus RN4220 harboring GyrA D83N/ParC D79N double mutant after 20 to 22 hrs; assay type: functional
Staphylococcus aureus [31] = experiment: Antibacterial activity against Staphylococcus aureus RN4220 harboring GyrB D437N mutant after 20 to 22 hrs; assay type: functional
Staphylococcus aureus [32] = experiment: Antibacterial activity against Staphylococcus aureus RN4220 harboring ParC S80F mutant after 20 to 22 hrs; assay type: functional
Staphylococcus aureus [33] = experiment: Antibacterial activity against Staphylococcus aureus RN4220 harboring ParC S80F/GyrA S84L double mutant after 20 to 22 hrs; assay type: functional
Klebsiella pneumoniae [34] = experiment: Antibacterial activity against wild type Klebsiella pneumoniae 1161486 after 20 to 22 hrs; assay type: functional
Klebsiella pneumoniae [35] = experiment: Antibacterial activity against Klebsiella pneumoniae 1161486 harboring GyrA S83I mutant after 20 to 22 hrs; assay type: functional
Klebsiella pneumoniae [36] = experiment: Antibacterial activity against Klebsiella pneumoniae 1161486 harboring GyrA S83I/ParC S80I double mutant after 20 to 22 hrs; assay type: functional
Klebsiella pneumoniae [37] = experiment: Antibacterial activity against Klebsiella pneumoniae 1161486 harboring GyrA S83F/D87V/ParC S80I triple mutant after 20 to 22 hrs; assay type: functional
Escherichia coli [38] = experiment: Antibacterial activity against Escherichia coli K-12 MG1655 harboring GyrA S83L/D87N/ParC S80I triple mutant after 20 to 22 hrs; assay type: functional; conditions: K-12 substr. MG1655
Staphylococcus aureus [39] = experiment: Resistance factor, ratio of MIC for Staphylococcus aureus RN4220 harboring GyrA D83N mutant to MIC for wild type Staphylococcus aureus RN4220; assay type: functional
Staphylococcus aureus [40] = experiment: Resistance factor, ratio of MIC for Staphylococcus aureus RN4220 harboring GyrA D83N/ParC D79N double mutant to MIC for wild type Staphylococcus aureus RN4220; assay type: functional
Staphylococcus aureus [41] = experiment: Resistance factor, ratio of MIC for Staphylococcus aureus RN4220 harboring GyrB D437N mutant to MIC for wild type Staphylococcus aureus RN4220; assay type: functional
Staphylococcus aureus [42] = experiment: Resistance factor, ratio of MIC for Staphylococcus aureus RN4220 harboring ParC S80F mutant to MIC for wild type Staphylococcus aureus RN4220; assay type: functional
Staphylococcus aureus [43] = experiment: Resistance factor, ratio of MIC for Staphylococcus aureus RN4220 harboring ParC S80F/GyrA S84L double mutant to MIC for wild type Staphylococcus aureus RN4220; assay type: functional
Klebsiella pneumoniae [44] = experiment: Resistance factor, ratio of MIC for Klebsiella pneumoniae 1161486 harboring GyrA S83I mutant to MIC for wild type Klebsiella pneumoniae 1161486; assay type: functional
Klebsiella pneumoniae [45] = experiment: Resistance factor, ratio of MIC for Klebsiella pneumoniae 1161486 harboring GyrA S83I/ParC S80I double mutant to MIC for wild type Klebsiella pneumoniae 1161486; assay type: functional
Klebsiella pneumoniae [46] = experiment: Resistance factor, ratio of MIC for Klebsiella pneumoniae 1161486 harboring GyrA S83F/D87V/ParC S80I triple mutant to MIC for wild type Klebsiella pneumoniae 1161486; assay type: functional
Escherichia coli [47] = experiment: Resistance factor, ratio of MIC for Escherichia coli K-12 MG1655 harboring GyrA S83L/D87N/ParC S80I triple mutant to MIC for wild type Escherichia coli K-12 MG1655; assay type: functional, K-12 substr. MG1655
Escherichia coli [48] = experiment: Antibacterial activity against tolC-deficient fluoroquinolones-sensitive Escherichia coli JC7623 clinical isolate harboring wild type DNA gyrase after 20 to 22 hrs
Escherichia coli [49] = experiment: Antibacterial activity against tolC-deficient fluoroquinolones-resistant Escherichia coli W4753 clinical isolate harboring DNA gyrase S83L/D87N/ParC S80I/ParE S458A mutant after 20 to 22 hrs
Escherichia coli [50] = experiment: Resistance factor, ratio of MIC for 4 times MIC-treated tolC-deficient Escherichia coli ATCC 25922 harboring DR76_3503 Q47H mutant to MIC for tolC-deficient Escherichia coli ATCC 25922; assay type: functional
Escherichia coli [51] = experiment: Resistance factor, ratio of MIC for 4 times MIC-treated tolC-deficient Escherichia coli ATCC 25922 to MIC for tolC-deficient Escherichia coli ATCC 25922; assay type: functional
DNA gyrase = DNA gyrase (Escherichia coli, UniProt P0AES4+P0AES6)
Description: Inhibition of Escherichia coli DNA gyrase A2B2 using relaxed pNO1 as substrate

N[C@H]1CCN(c2cc3c(cc2F)n2ccnc2c(=O)n3C2CC2)C1
MIC (Escherichia coli [1]): 4 µg/mL (≈ 12.2 µM) | MIC (Escherichia coli [2]): 8 µg/mL (≈ 24.4 µM) | MIC (Escherichia coli [3]): < 0.125 µg/mL | MIC (Escherichia coli [4]): 2 µg/mL (≈ 6.11 µM) | MIC (Pseudomonas aeruginosa [5]): 32 µg/mL (≈ 97.8 µM) | MIC (Pseudomonas aeruginosa [6]): < 0.125 µg/mL | MIC (Staphylococcus aureus [7]): 8 µg/mL (≈ 24.4 µM) | CC50 at 40 h [8]: > 30 µM | inhibition (Escherichia coli [9]): Active | MIC (Acinetobacter baumannii [10]): 4 to 8 µg/mL (≈ 12.2 to 24.4 µM) | MIC (Klebsiella pneumoniae [11]): 0.5 µg/mL (≈ 1.53 µM) | MIC (Acinetobacter baumannii [12]): > 64 µg/mL | MIC (Klebsiella pneumoniae [13]): 32 µg/mL (≈ 97.8 µM) | Activity (Staphylococcus aureus [14]): Active | Activity (Staphylococcus aureus [15]): Active | solubility thermodynamic [16]: 1130 µg/mL (≈ 3460 µM) | Papp [17]: 0.4 ×10⁻⁶ cm/s | metabolised at 20 min, 5 µM [18]: 6% | metabolised at 20 min, 5 µM [19]: 8% | metabolised at 20 min, 5 µM [20]: 11% | IC50 (Cytochrome P450 3A4 [21]): > 30 µM | IC50 (Cytochrome P450 3A4 [22]): > 30 µM | IC50 [23]: > 30 µM | remaining at 4 h, 1 µM [24]: 80 to 120% | remaining at 4 h, 1 µM [25]: 80 to 120% | Activity (L5178Y [26]): Toxic | Activity (L5178Y [27]): Toxic | MIC (Staphylococcus aureus [28]): 4 µg/mL (≈ 12.2 µM) | MIC (Staphylococcus aureus [29]): 4 µg/mL (≈ 12.2 µM) | MIC (Staphylococcus aureus [30]): 16 µg/mL (≈ 48.9 µM) | MIC (Staphylococcus aureus [31]): 4 µg/mL (≈ 12.2 µM) | MIC (Staphylococcus aureus [32]): 8 µg/mL (≈ 24.4 µM) | MIC (Staphylococcus aureus [33]): 16 µg/mL (≈ 48.9 µM) | MIC (Klebsiella pneumoniae [34]): 16 µg/mL (≈ 48.9 µM) | MIC (Klebsiella pneumoniae [35]): 64 µg/mL (≈ 196 µM) | MIC (Klebsiella pneumoniae [36]): 128 µg/mL (≈ 391 µM) | MIC (Klebsiella pneumoniae [37]): 64 µg/mL (≈ 196 µM) | MIC (Escherichia coli [38]): 512 µg/mL (≈ 1560 µM) | Ratio (Staphylococcus aureus [39]): 1 | Ratio (Staphylococcus aureus [40]): 4 | Ratio (Staphylococcus aureus [41]): 1 | Ratio (Staphylococcus aureus [42]): 2 | Ratio (Staphylococcus aureus [43]): 4 | Ratio (Klebsiella pneumoniae [44]): 4 | Ratio (Klebsiella pneumoniae [45]): 8 | Ratio (Klebsiella pneumoniae [46]): 4 | Ratio (Escherichia coli [47]): 64 | MIC (Escherichia coli [48]): 0.125 µg/mL (≈ 0.382 µM) | MIC (Escherichia coli [49]): 2 µg/mL (≈ 6.11 µM) | Ratio (Escherichia coli [50]): 32 | Ratio (Escherichia coli [51]): 8 | IC50 (DNA gyrase): 1.19 µM
